pIC50: −log10 of the molar value.
Each compound was assayed against T1, human type 1 glycine transporter (GlyT1) (Homo sapiens, UniProt P48067) (assay: Glycine uptake inhibition experiment ([3H]glycine uptake)). Settings: GlyT1.
T1 construct: T98G cells (glioma cells) expressing human type 1 glycine transporter (GlyT1) were used
T1 sequence (P48067 1-706): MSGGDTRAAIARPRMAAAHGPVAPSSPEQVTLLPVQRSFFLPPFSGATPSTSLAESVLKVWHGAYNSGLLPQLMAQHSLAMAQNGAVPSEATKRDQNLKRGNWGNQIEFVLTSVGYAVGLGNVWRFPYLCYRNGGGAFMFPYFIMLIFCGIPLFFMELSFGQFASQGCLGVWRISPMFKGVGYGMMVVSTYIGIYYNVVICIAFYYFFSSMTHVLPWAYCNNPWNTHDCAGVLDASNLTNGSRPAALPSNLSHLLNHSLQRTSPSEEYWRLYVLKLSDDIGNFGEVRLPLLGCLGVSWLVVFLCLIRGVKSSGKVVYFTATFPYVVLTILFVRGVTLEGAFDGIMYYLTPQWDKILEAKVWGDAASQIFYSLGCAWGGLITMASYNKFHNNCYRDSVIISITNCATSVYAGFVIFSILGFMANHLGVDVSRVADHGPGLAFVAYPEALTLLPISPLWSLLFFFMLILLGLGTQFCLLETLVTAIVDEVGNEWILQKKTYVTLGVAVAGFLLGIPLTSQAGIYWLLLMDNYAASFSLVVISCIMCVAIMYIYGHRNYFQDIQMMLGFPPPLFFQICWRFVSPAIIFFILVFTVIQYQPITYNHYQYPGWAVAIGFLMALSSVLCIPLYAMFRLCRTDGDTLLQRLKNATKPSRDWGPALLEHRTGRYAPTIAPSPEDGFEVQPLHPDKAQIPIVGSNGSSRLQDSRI
Type: cell-based
Summary of the method: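 T98G glioma cells expressing human GlyT1 were pretreated 10 min with compound in HEPES buffer pH 7.4 (0.2% BSA), then incubated with compound plus 250 nM final [3H]glycine for 15 min at room temperature. Intracellular radioactivity was counted after NaOH lysis; 10 μM ALX5407 defined non-specific uptake. IC50 came from 10^−9–10^−5 M curves.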

| pIC50 | SMILES |
| --- | --- |
| 7.14 | O=C(NC(c1cccc(-c2cnn(CC(F)(F)F)c2)c1)C1(O)CCC(F)(F)CC1)c1nccc(C(F)(F)F)c1Cl (single isomer, unassigned) [Compound 135, 3-chloro-N-[(4,4-difluoro-1-hydroxycyclohexyl){3-[1-(2,2,2-trifluoroethyl)-1H-pyrazol-4-yl]phenyl}methyl]-4-(trifluoromethyl)pyridine-2-carboxamide] |
| 6.13 | O=C(NC(c1cccc(-c2cccnc2)c1)C1(O)CCCCC1)c1nccc(C(F)(F)F)c1Cl (single isomer, unassigned) [Compound 27, 3-chloro-N-{(1-hydroxycyclohexyl)[3-(pyridin-3-yl)phenyl]methyl}-4-(trifluoromethyl)pyridine-2-carboxamide] |
| 5.10 | O=C(NC(c1cccc(Cl)c1)C1(O)CCCC1)c1nccc(C(F)(F)F)c1Cl (single isomer, unassigned) [Compound 55, 3-chloro-N-[(3-chlorophenyl)(1-hydroxycyclopentyl)methyl]-4-(trifluoromethyl)pyridine-2-carboxamide] |
| 7.02 | O=C(NC(c1cccc(Cl)n1)[C@]1(O)CC[C@@H](F)CC1)c1ccnc(C(F)(F)F)c1Cl (single isomer, unassigned) [Compound 338, 3-chloro-N-[(6-chloropyridin-2-yl)(cis-4-fluoro-1-hydroxycyclohexyl)methyl]-2-(trifluoromethyl)pyridine-4-carboxamide] |
| 5.49 | O=C(NC(c1ccccc1Cl)[C@]1(O)CC[C@@H](F)CC1)c1nccc(C(F)(F)F)c1Cl (single isomer, unassigned) [Compound 210, 3-chloro-N-[(2-chlorophenyl)(cis-4-fluoro-1-hydroxycyclohexyl)methyl]-4-(trifluoromethyl)pyridine-2-carboxamide] |
| 6.05 | NC(=O)c1cccc(C(NC(=O)c2nccc(C(F)(F)F)c2Cl)C2(O)CCCC2)c1 (stereo not drawn) [Compound 106, N-[(3-carbamoylphenyl)(1-hydroxycyclopentyl)methyl]-3-chloro-4-(trifluoromethyl)pyridine-2-carboxamide] |
| 8.03 | O=C(NC(c1cccc(Cl)n1)C1(O)CCCCC1)c1nccc(C(F)(F)F)c1Cl (single isomer, unassigned) [Compound 384, 3-chloro-N-[(6-chloropyridin-2-yl)(1-hydroxycyclohexyl)methyl]-4-(trifluoromethyl)pyridine-2-carboxamide] |
| 6.82 | O=C(N[C@@H](c1cccc(Br)c1)[C@]1(O)CC[C@H](F)CC1)c1nccc(C(F)(F)F)c1Cl [Compound 102, N-[(S)-(3-bromophenyl)(trans-4-fluoro-1-hydroxycyclohexyl)methyl]-3-chloro-4-(trifluoromethyl)pyridine-2-carboxamide] |
| 6.00 | O=C(NC(c1cccc(F)c1Cl)[C@]1(O)CC[C@@H](F)CC1)c1cccc(F)c1Cl (single isomer, unassigned) [Compound 288, 2-chloro-N-[(2-chloro-3-fluorophenyl)(cis-4-fluoro-1-hydroxycyclohexyl)methyl]-3-fluorobenzamide] |
| 6.60 | O=C(NC(c1ccccc1F)C1(O)CCC(F)(F)CC1)c1nccc(C(F)(F)F)c1Cl (single isomer, unassigned) [Compound 237] |
| 5.55 | O=C(NC(c1cccc(F)c1Cl)[C@]1(O)CC[C@@H](F)CC1)c1ccccc1C1CC1 (single isomer, unassigned) [Compound 365, N-[(2-chloro-3-fluorophenyl)(cis-4-fluoro-1-hydroxycyclohexyl)methyl]-2-cyclopropylbenzamide] |
| 6.00 | CCn1cc(-c2cccc(C(NC(=O)c3c(Cl)cc(Cl)cc3Cl)C3(O)CCC(F)(F)CC3)c2)cn1 (stereo not drawn) [Compound 176, 2,4,6-trichloro-N-{(4,4-difluoro-1-hydroxycyclohexyl)[3-(1-ethyl-1H-pyrazol-4-yl)phenyl]methyl}benzamide] |
| 6.59 | CS(=O)(=O)c1nc(C(F)(F)F)ccc1C(=O)NC(c1cccc(F)c1Cl)[C@]1(O)CC[C@@H](F)CC1 (single isomer, unassigned) [Compound 388, N-[(2-chloro-3-fluorophenyl)(cis-4-fluoro-1-hydroxycyclohexyl)methyl]-2-(methylsulfonyl)-6-(trifluoromethyl)pyridine-3-carboxamide] |
| 5.77 | Cc1cc(C(=O)NC(c2cccc(F)c2Cl)[C@]2(O)CC[C@@H](F)CC2)c2cnn(C(C)C)c2n1 (single isomer, unassigned) [Compound 269, N-[(2-chloro-3-fluorophenyl)(cis-4-fluoro-1-hydroxycyclohexyl)methyl]-6-methyl-1-(propan-2-yl)-1H-pyrazolo[3,4-b]pyridine-4-carboxamide] |
| 7.02 | O=C(NC(c1cccc(Cl)c1F)C1(O)CCC(F)(F)CC1)c1ccnc(C(F)(F)F)c1Cl (single isomer, unassigned) [Compound 169, 3-chloro-N-[(3-chloro-2-fluorophenyl)(4,4-difluoro-1-hydroxycyclohexyl)methyl]-2-(trifluoromethyl)pyridine-4-carboxamide] |
| 5.52 | O=C(NC(c1ccnc(Cl)c1)[C@]1(O)CC[C@@H](F)CC1)c1nccc(C(F)(F)F)c1Cl (single isomer, unassigned) [Compound 258] |
| 5.06 | CCn1cc(-c2cccc(C(NC(=O)c3ncc(Cl)cc3C(F)(F)F)C3(O)CCC(F)(F)CC3)c2)cn1 (stereo not drawn) [Compound 206, 5-chloro-N-{(4,4-difluoro-1-hydroxycyclohexyl)[3-(1-ethyl-1H-pyrazol-4-yl)phenyl]methyl}-3-(trifluoromethyl)pyridine-2-carboxamide] |
| 6.21 | O=C(NC(c1cc(Cl)ccn1)C1(O)CCC(F)(F)CC1)c1ccc(C(F)(F)F)nc1Cl (single isomer, unassigned) [Compound 350, 2-chloro-N-[(4-chloropyridin-2-yl)(4,4-difluoro-1-hydroxycyclohexyl)methyl]-6-(trifluoromethyl)pyridine-3-carboxamide] |
| 6.00 | O=C(NC(c1ccccn1)[C@]1(O)CC[C@@H](F)CC1)c1nccc(C(F)(F)F)c1Cl (single isomer, unassigned) [Compound 244, 3-chloro-N-[(cis-4-fluoro-1-hydroxycyclohexyl)(pyridin-2-yl)methyl]-4-(trifluoromethyl)pyridine-2-carboxamide] |
| 7.12 | O=C(N[C@@H](c1cccc(Br)c1)C1(O)CCCC1)c1cccc(C(F)(F)F)c1Cl [Compound 64, N-[(S)-(3-bromophenyl)(1-hydroxycyclopentyl)methyl]-2-chloro-3-(trifluoromethyl)benzamide] |
| 6.82 | COc1cccc(C(NC(=O)c2nccc(C(F)(F)F)c2Cl)C2(O)CCCC2)c1 (single isomer, unassigned) [Compound 57, 3-chloro-N-[(1-hydroxycyclopentyl)(3-methoxyphenyl)methyl]-4-(trifluoromethyl)pyridine-2-carboxamide] |
| 6.00 | O=C(NC(c1ccc(F)cc1)C1(O)CCCC1)c1nccc(C(F)(F)F)c1Cl (stereo not drawn) [Compound 39, 3-chloro-N-[(4-fluorophenyl)(1-hydroxycyclopentyl)methyl]-4-(trifluoromethyl)pyridine-2-carboxamide] |
| 6.08 | CCn1cc(-c2cccc(C(NC(=O)c3cccc4ccccc34)C3(O)CCC(F)(F)CC3)c2)cn1 (stereo not drawn) [Compound 138, N-{(4,4-difluoro-1-hydroxycyclohexyl)[3-(1-ethyl-1H-pyrazol-4-yl)phenyl]methyl}naphthalene-1-carboxamide] |
| 6.32 | O=C(NC(c1ccccc1)C1(O)CCCC1)c1nccc(C(F)(F)F)c1Cl (stereo not drawn) [Compound 12, 3-chloro-N-[(1-hydroxycyclopentyl)(phenyl)methyl]-4-(trifluoromethyl)pyridine-2-carboxamide] |
| 7.17 | O=C(NC(c1cc(Cl)ccc1Cl)C1(O)CCCC1)c1nccc(C(F)(F)F)c1Cl (stereo not drawn) [Compound 108, 3-chloro-N-[(2,5-dichlorophenyl)(1-hydroxycyclopentyl)methyl]-4-(trifluoromethyl)pyridine-2-carboxamide] |

Same assay, conditions: human GlyT1

| pIC50 | SMILES |
| --- | --- |
| 6.70 | CS(=O)(=O)c1cc(C(F)(F)F)ccc1C(=O)NC(c1ccccc1Cl)C1(O)CCC(F)(F)CC1 (single isomer, unassigned) [Compound 405, N-[(2-chlorophenyl)(4,4-difluoro-1-hydroxycyclohexyl)methyl]-2-(methylsulfonyl)-4-(trifluoromethyl)benzamide] |
| 6.49 | CS(=O)(=O)c1nc(C(F)(F)F)ccc1C(=O)NC(c1ccccc1Cl)C1(O)CCC(F)(F)CC1 (single isomer, unassigned) [Compound 406, N-[(2-chlorophenyl)(4,4-difluoro-1-hydroxycyclohexyl)methyl]-2-(methylsulfonyl)-6-(trifluoromethyl)pyridine-3-carboxamide] |

— patent US20160130278A1 (TAISHO PHARMACEUTICAL CO., LTD, priority 2013, published 2016)
